Tests used:
[1] = target: T1, K18PL tau (Homo sapiens, UniProt P10636, P618L); assay: Heparin-induced K18PL tau fibrillization assay monitored by ThT fluorescence; type: biochemical; settings: Table 4; for Tau ThT Assay % Inhib. / inhibition at 80 µM: highest tested concentration (80 μM); for inhibition at 80 µM: read-out: Tau ThT Assay % Inhib.; for IC50 / Tau ThT Assay Log IC50: logarithm of IC50, K18PL tau ThT fluorescence inhibition; for IC50: read-out: Tau ThT Assay Log IC50 (converted)
T1 construct: (K18PL; amino acids 244-369); made in house
Experimental: Tau fibril formation reactions were performed essentially as described (Crowe, A., Ballatore, C., Hyde, E., Trojanowski, J. Q., and Lee, V. M. Y. (2007) Biochemical and Biophysical Research Communications 358, 1-6). K18PL (2 μl of a 30 μM stock that also contained 0.24 μM Alexa Red-labeled K18PL) was dispensed into black 1536-well plates (Grenier) using a solenoid-based dispenser. Following transfer of 23 nL of test compound or DMSO vehicle by a pin tool from compound library plates, 2 μl/well of 40 μM heparin in reagent buffer was dispensed and the plate was centrifuged for 15 s at 1000 rpm in a table-top centrifuge. The fibrillization reaction proceeded for 6 hours at 37° C. in a humidified incubator (Kalypsys).
K18PL fibril formation was quantified with a ThT assay as previously described (Crowe, A., Ballatore, C., Hyde, E., Trojanowski, J. Q., and Lee, V. M. Y. (2007) Biochemical and Biophysical Research Communications 358, 1-6). Briefly, 1 μl/well of 62.5 μM ThT (Sigma) in 100 mM glycine, pH 8.5 (12.5 μM final concentration) was dispensed into 1536-well plates after completion of the fibrillization reaction and incubated at room temperature for 1 hour. Plates were read on an Envision fluorescence plate reader with an excitation of 450 nm and an emission setting of 510 nm.
Compound effects on tau assembly were determined for the ThT and FP assays using the formula 1−(Fcompound− FDMSO)/( Fcontrol− FDMSO), where Fcontrol denotes the median plate fluorescence values (ThT assay) or mP values (FP assay) of the non-fibrillizing K18 KD control wells, FDMSO denotes the median value of the DMSO control wells, and Fcompound denotes the compound well values. The resulting values were multiplied by 100 to obtain the percent inhibition of tau fibril formation.
(§1) The solubility of test compounds in the sodium acetate buffer used for subsequent fibrillization reactions was determined by turbidimetric measurements. Compounds were then evaluated in a heparin-induced tau assembly assay, in which the fibrillization of the truncated K18 tau fragment (comprised of four MT-binding repeats) bearing the P301L mutation (K18PL) found in FTDP-17, was monitored by thioflavine-T (ThT) binding and fluorescence (FIG. 3A). (Crowe, A.; et al., Identification of aminothienopyridazine inhibitors of tau assembly by quantitative high-throughput screening. Biochemistry 2009, 48, 7732-45.) The inhibitory activity of test compounds was then confirmed with an orthogonal sedimentation assay in which compound-treated fibrillizing mixtures were centrifuged and quantitation of K18PL tau in the soluble and insoluble fraction was performed by densitometric analyses of SDS-PAGE (FIG. 3B). […] Thus, the tau fibrillization assay was repeated in which both DMSO- and compound-treated mixtures were initially centrifuged for 30 min. prior to incubation (i.e., at time zero of the fibrillization reaction) to remove any pelletable material.

[2] = target: T1, K18PL tau; assay: K18PL tau centrifugation (sedimentation) assay, SDS-PAGE densitometry; type: biochemical; settings: Table 4; K18PL tau centrifugation assay
Experimental: The determination of compound-induced effects on the amount of tau that remains soluble upon centrifugation, and EM visualization of tau species following incubation with test compounds, were as previously described (Crowe, A., Ballatore, C., Hyde, E., Trojanowski, J. Q., and Lee, V. M. Y. (2007) Biochemical and Biophysical Research Communications 358, 1-6).
as §1

T1 sequence (P10636 561-686 P618L): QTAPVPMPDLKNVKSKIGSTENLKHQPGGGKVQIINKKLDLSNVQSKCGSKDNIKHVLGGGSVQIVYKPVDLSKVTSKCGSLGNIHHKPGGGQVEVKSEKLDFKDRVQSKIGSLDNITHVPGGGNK

Tau ThT Assay % Inhib. [1] [%]	Tau Cent. Assay % Soluble [2] [%]	inhibition at 80 µM [1] [%]	IC50 [1] [µM]	Tau ThT Assay Log IC50 [1]	SMILES
8	17	–	–	–	CCOC(=O)c1nn(-c2ccc(C(C)C)cc2)c(=O)c2c(N)scc12 [CNDR-51347]
–	51	39	5.01	–	CCOC(=O)c1nn(-c2ccc(Cl)cc2)c(=O)c2c(NC)scc12 [CNDR-51360, Ethyl 3-(4-chlorophenyl)-5-(methylamino)-4-oxo-3,4-dihydrothieno[3,4-d]pyridazine-1-carboxylate]
–	69	81	–	−5.3	CCOC(=O)c1nn(-c2ccc(O)cc2)c(=O)c2c(N)scc12 [CNDR-51363, Ethyl 5-amino-3-(4-hydroxyphenyl)-4-oxo-3,4-dihydrothieno[3,4-d]pyridazine-1-carboxylate]
–	29	41	2	–	CCOC(=O)c1nn(-c2ccc(OC(F)(F)F)cc2)c(=O)c2c(N)scc12 [CNDR-51369, Ethyl 5-amino-4-oxo-3-(4-(trifluoromethoxy)phenyl)-3,4-dihydrothieno[3,4-d]pyridazine-1-carboxylate]
–	27	48	10	–	CCOC(=O)c1nn(-c2ccc(C(F)(F)F)cc2)c(=O)c2c(N)scc12 [CNDR-51373, Ethyl 5-amino-4-oxo-3-(4-(trifluoromethyl)phenyl)-3,4-dihydrothieno[3,4-d]pyridazine-1-carboxylate]
–	70	84	–	−5.4	Nc1scc2c(C(=O)O)nn(-c3ccc(O)cc3)c(=O)c12 [CNDR-51374, 5-Amino-3-(4-hydroxyphenyl)-4-oxo-3,4-dihydrothieno[3,4-d]pyridazine-1-carboxylic acid]
–	62	83	1.26	–	CC(C)NC(=O)c1nn(-c2cccc(Cl)c2)c(=O)c2c(N)scc12 [CNDR-51391, 5-Amino-3-(3-chlorophenyl)-N-isopropyl-4-oxo-3,4-dihydrothieno[3,4-d]pyridazine-1-carboxamide]
–	83	84	–	−5.7	Nc1scc2c(C(=O)O)nn(-c3ccc(F)cc3)c(=O)c12 [CNDR-51395, 5-Amino-3-(4-fluorophenyl)-4-oxo-3,4-dihydrothieno[3,4-d]pyridazine-1-carboxylic acid]
87	90	–	–	−5.9	Cc1nn(-c2ccc(Cl)cc2)c(=O)c2c(N)scc12 [CNDR-51400]
–	62	92	–	−5.4	CCOC(=O)c1nn(-c2ccc(Cl)cc2)c(=O)c2c(N)sc(Br)c12 [CNDR-51411, Ethyl 5-amino-7-bromo-3-(4-chlorophenyl)-4-oxo-3,4-dihydrothieno[3,4-d]pyridazine-1-carboxylate]

Second part, the compound before the results:

SMILES	Tau ThT Assay % Inhib. [1] [%]	Tau Cent. Assay % Soluble [2] [%]	inhibition at 80 µM [1] [%]	IC50 [1] [µM]	Tau ThT Assay Log IC50 [1]
CCOC(=O)c1nn(-c2ccc([N+](=O)[O-])cc2)c(=O)c2c(N)scc12 [CNDR-51352, Ethyl 5-amino-3-(4-nitrophenyl)-4-oxo-3,4-dihydrothieno[3,4-d]pyridazine-1-carboxylate]	–	59	69	50.1	–
CCOC(=O)c1nn(-c2ccc(N)cc2)c(=O)c2c(N)scc12 [CNDR-51355, Ethyl 5-amino-3-(4-aminophenyl)-4-oxo-3,4-dihydrothieno[3,4-d]pyridazine-1-carboxylate]	–	67	74	1.26	–
Nc1scc2c(C(=O)O)nn(-c3ccc(OC(F)(F)F)cc3)c(=O)c12 [CNDR-51370, 5-Amino-4-oxo-3-(4-(trifluoromethoxy)phenyl)-3,4-dihydrothieno[3,4-d]pyridazine-1-carboxylic acid]	–	65	88	6.31	–
CC(C)NC(=O)c1nn(-c2ccc(OC(F)(F)F)cc2)c(=O)c2c(N)scc12 [CNDR-51375, 5-Amino-N-isopropyl-4-oxo-3-(4-(trifluoromethoxy)phenyl)-3,4-dihydrothieno[3,4-c]pyridazine-1-carboxamide]	–	42	67	–	–
CC(C)NC(=O)c1nn(-c2ccc(O)cc2)c(=O)c2c(N)scc12 [CNDR-51376, 5-Amino-3-(4-hydroxyphenyl)-N-isopropyl-4-oxo-3,4-dihydrothieno[3,4-d]pyridazine-1-carboxamide]	–	84	86	–	−4.8
NNC(=O)c1nn(-c2ccc(Cl)cc2)c(=O)c2c(N)scc12 [CNDR-51378, 5-Amino-3-(4-chlorophenyl)-4-oxo-3,4-dihydrothieno[3,4-d]pyridazine-1-carbohydrazide]	–	77	93	3.16	–
CCOC(=O)c1nn(-c2cccc(Cl)c2)c(=O)c2c(N)scc12 [CNDR-51387]	90	71	–	–	−5.7
Nc1scc2c(C(=O)O)nn(-c3cccc(Cl)c3)c(=O)c12 [CNDR-51388, 5-Amino-3-(3-chlorophenyl)-4-oxo-3,4-dihydrothieno[3,4-d]pyridazine-1-carboxylic acid]	–	71	92	–	−5.8
Nc1scc2c(C(=O)O)nn(-c3ccc(Br)cc3)c(=O)c12 [CNDR-51389, 5-Amino-3-(4-bromophenyl)-4-oxo-3,4-dihydrothieno[3,4-d]pyridazine-1-carboxylic acid]	–	78	95	3.16	–
CCOC(=O)c1nn(-c2ccc(Cl)cc2)c(=O)c2c(N)sc(Cl)c12 [CNDR-51393, Ethyl 5-amino-7-chloro-3-(4-chlorophenyl)-4-oxo-3,4-dihydrothieno[3,4-d]pyridazine-1-carboxylate]	–	65	88	–	−5.7
CCOC(=O)c1nn(-c2ccc(F)cc2)c(=O)c2c(N)scc12 [CNDR-51394, Ethyl 5-amino-3-(4-fluorophenyl)-4-oxo-3,4-dihydrothieno[3,4-d]pyridazine-1-carboxylate]	–	63	77	–	−6.0
CC(C)NC(=O)c1nn(-c2ccc(F)cc2)c(=O)c2c(N)scc12 [CNDR-51396, 5-Amino-3-(4-fluorophenyl)-N-isopropyl-4-oxo-3,4-dihydrothieno[3,4-d]pyridazine-1-carboxamide]	–	77	89	–	−5.8
Nc1scc2c(C(=O)NC3CC3)nn(-c3ccc(F)cc3)c(=O)c12 [CNDR-51397, 5-Amino-N-cyclopropyl-3-(4-fluorophenyl)-4-oxo-3,4-dihydrothieno[3,4-d]pyridazine-1-carboxamide]	–	78	88	–	−5.6
CCOC(=O)c1nn(-c2ccc(I)cc2)c(=O)c2c(N)scc12 [CNDR-51404, Ethyl 5-amino-3-(4-iodophenyl)-4-oxo-3,4-dihydrothieno[3,4-d]pyridazine-1-carboxylate]	–	63	89	2.51	–
Nc1scc2c(-c3ccccc3)nn(-c3ccc(Cl)cc3)c(=O)c12 [CNDR-51405]	85	44	–	–	−6.0
